This is an account of results in patent publication US7078499B2, “Nucleotide analogues comprising a reporter moiety and a polymerase enzyme blocking moiety” (GE Healthcare UK Limited, priority 2000, dated 2006).

One experiment concerns the target T1, HIV RT (Human immunodeficiency virus type 1 group M subtype B, UniProt P03366).
T1 construct: AMV RT; MuLV RT; SAV RT and HIV RT all from APBiotech; purchased APBiotech
The experiment in a line: Mesophilic reverse transcriptase reaction, HIV RT. Particulars: RNA template, final enzyme concentration of 4 units/μl. It is filed as biochemical. Set-up: key to result of incorporation (termination / further chain extension): T: Incorporation results in termination; E: Incorporation permits further chain extension; T/E: Predominant product is primer extended by one base, but evidence of some further extension also observed; key to primer extended by at least one base within assay time (grade): −: No extension within assay time; +/−: up to 25% of primer extended by at least one base within assay time; +: up to 50% of primer extended by at least one base within assay time; ++: up to 75% of primer extended by at least one base within assay time; +++: essentially all primer extended by at least one base within assay time. As to the method:
(§1) DNA polymerase assays were performed using Sequence 1 as primer and Sequence 2 as template. • Sequence 1 5′[Cy3]TAACTCATTAACAGGATC 3′ • Sequence 2 5′AT TCGCGGTATTCTGGTATGAAGCTTTTAGATCCTGTTAATGAGTTA GTA3′
(§2) The template (Sequence 2) was designed such that the base (underlined) immediately adjacent to the 3′ end of the hybridised primer is complementary to the nucleotide test compound. Nucleotide test compounds were compounds (6) (4′-C-(glycylaminomethyl)thymidine triphosphate), (8) (4′-C-(N-trifluoroacetyaminomethyl)thymidine triphosphate) and (9) (4′-C-(aminomethyl)thymidine triphosphate) as described above.
(§3) Primer extension reactions were performed using the above primers in the presence of 40 to 80 μM of nucleotide triphosphates. Positive control reactions contained all four native nucleotide triphosphates. For the other reactions the TTP was replaced with either a 2:1 ratio of […] for the terminator control, or entirely by the test compound The enzymes were used at a final concentration of 0.175 units/μl and a magnesium ion concentration of 2.5 mM in buffers supplied by the manufacturer. The primer and template concentrations were 0.5 pmol/μl and 2 pmol/μl respectively.
Extension reactions preformed with mesophilic polymerases were carried out by mixing all the components of the reaction except the enzyme and heating to 70° C. for 5 min. After the reactions had cooled to room temperature 0.175 units of the enzyme were added and the reactions heated to 37° C. for 20–40 minutes. The following enzymes were used: T7 DNA polymerase (T7); Sequenase 2™ (Seq); Klenow fragment of DNA polymerase 1 (Klen); phi-29 DNA polymerase (Phi-29); T4 DNA polymerase (T4) (all from AP Biotech) and Bst DNA polymerase (Bst) (Cambio Ltd).
Reverse transcriptase reactions were performed essentially as described above for thermophilic and mesophilic enzymes. The template for these reactions was the RNA equivalent of sequence 2. All the thermophilic enzymes were assayed in Tth reaction buffer (Cambio Ltd, Cambridge UK) containing 2.5 mM Manganese ions. The following enzymes were used: Thermosequenase (TS1); Thermosequenase II (TSII); delta Tts DNA polymerase (deltaTts); delta Tts D DNA polymerase (deltaTtsD) (all from APBiotech); Retrotherm reverse transcriptase (Retroth) (Cambio Ltd); Tth DNA polymerase (Tth) (Cambio Ltd.).
Mesophilic reverse transcriptases (AMV RT; MuLV RT; SAV RT and HIV RT all from APBiotech) were assayed in their respective buffers with a final enzyme concentration of 4 units/μl.
(§4) The reactions were stopped by adding a 0.5 volume aliquot of 80% formamide containing 0.1% (w/v) bromophenol blue and 0.1% (w/v) cresol blue. The reaction products were separated by denaturing gel electrophoresis at a constant power of 45 W on 16% polyacrylamide gels containing 50% urea.
(§5) Gels were scanned for Cy3 fluorescence on a Molecular Dynamics Fluorimager and the data analysed using Molecular Dynamics ImageQuant 5 software.
(§6) The incorporation of a test nucleotide triphosphate results in the appearance on a polyacrylamide gel of a single band corresponding to a single base extension product. If, however, the enzyme adds additional bases then further bands would be observed that corresponded to either the full-length product or positions of other complementary bases in the template.

A further experiment deals with Thermosequenase II. The experiment in a line: Thermostable DNA polymerase primer extension, TSII. It is filed as biochemical. The conditions noted are these: DNA template, 45° C. for 20–40 minutes; for primer extended by at least one base within assay time (grade): TTP replaced entirely by test compound. Also noted: key to result of incorporation (termination / further chain extension): T: Incorporation results in termination; E: Incorporation permits further chain extension; T/E: Predominant product is primer extended by one base, but evidence of some further extension also observed. Here is the method: as §1, §2, §3
Extension reactions with thermophilic enzymes were performed by initially denaturing the fully assembled reactions at 70° C. for 5 min. followed by 45° C. for 20–40 minutes. The following enzymes were used: Taq DNA polymerase (Taq); Thermosequenase (TS); Thermosequenase II (TSII); Thermosequenase E (TSE), Tfl DNA polymerase (Tfl); Tth DNA polymerase (Tth), deltaTts DNA polymerase (deltaTts), deltaTts D DNA polymerase (dettaTTSD) (all from APBiotech); Pfu DNA polymerase (Pfu) (Stratagene Ltd); Vent™ DNA polymerase (Vent) (New England Biolabs).
as §4, §5, §6

In the case of “4′-C-(Aminomethyl)thymidine triphosphate [compound (9)]”, the “primer extended by at least one base within assay time (grade)” value (“primer extended” for short) at HIV RT is recorded as “+++”; with Thermosequenase II, “+ (up to 50% of primer extended by at least one base within assay time)”. For the same compound, the results for the “result of incorporation (termination / further chain extension)” value at HIV RT and in the experiment on Thermosequenase II were “E” and “T”, respectively.

Consider “4′-C-(Glycylaminomethyl)thymidine triphosphate [compound (6)]”, for which, on HIV RT, the “primer extended” value was “+++” and the “result of incorporation (termination / further chain extension)” value was “E”. Also, in the experiment with Thermosequenase II, the “result of incorporation (termination / further chain extension)” value was “T” and the “primer extended” value is given as “+ (up to 50% of primer extended by at least one base within assay time)”.

`Cc1cn([C@H]2C[C@H](O)[C@@](CNC(=O)C(F)(F)F)(COP(=O)(O)OP(=O)(O)OP(=O)(O)O)O2)c(=O)[nH]c1=O` [compound (8), 4′-C-(N-trifluoroacetylaminomethyl)thymidine triphosphate]: on HIV RT, the “primer extended” value is reported as “+++” and the “result of incorporation (termination / further chain extension)” value was “E”. In the experiment with Thermosequenase II, the “result of incorporation (termination / further chain extension)” value is “T” and the “primer extended” value is on record as “+ (up to 50% of primer extended by at least one base within assay time)”.
